In one data set the test system is TgSOD1^G93A mice. Put plainly: Meso Scale Discovery multi-spot cytokine assay in spinal cord and plasma of TgSOD1 mice. As to conditions: 6.3 mg/kg i.p.
Data set [1] has as its system HMC3 human microglia cells. The data set can be described thus: Cell viability assay by AO/PI stain. The conditions noted are these: 0.3 μM, TNF-α 0.3 μg/mL. The data set is classed as cell-based. The method, then: (§1) Human microglial cell line HMC3 (CRL-3304) was purchased from ATCC (American Type Culture Collection). HMC3 cell line was cultured in DMEM medium with 10% FBS, 1% L-glutamine, and 1% penicillin/streptomycin. Cells were maintained in 37° C. incubator at 5% CO2.
HMC3 cells were resuspended, counted using the LUNA-II Automated Cell Counter, seeded in the 6-well plate (300 K cells/2 mL medium/well), and incubated overnight to allow cells to attach. Cells were treated with TNF-α or IFN-γ at five different concentrations (0, 10, 30, 100, 300 ng/mL) for 24 hr to induce cell activation. The supernatant medium was completely aspirated and 1 mL of fresh DMEM was added to wash the cell layer to remove detached cells and debris. The attached cells were resuspended and washed with PBS. Cells were washed with FACS buffer (2% FBS in PBS) prior to incubation with Zombie Violet Fixable Viability Dye (#423114, Biolegend, 1:500 dilution) and Human Fe Receptor Blocking Solution (#422302, Biolegend, 1:20) diluted in FACS buffer at RT for 10 min in the dark. Cells were then washed with FACS buffer and incubated at RT for 20 min with the following cell-surface antibodies: FITC anti-MHC II (#361706, Biolegend), PerCP/Cy5.5 anti-CD11b (#301328, Biolegend), BV605 anti-CD40 (#334336, Biolegend), PE anti-CD86 (#374206, Biolegend), PE/Cy7 anti-CD163 (#326514, Biolegend), APC anti-CD206 (#321110, Biolegend), and PerCP/Cy5.5 anti-CD14 (#367110, Biolegend). All of the cell-surface antibodies were diluted 1:20 in FACS buffer. Cells were permeabilized using the Transcription Factor Fixation/Permeabilization Buffer Set (#424401, Biolegend). Then cells were incubated with the following intracellular antibodies: APC/Cy7 anti-CD68 (#333822, Biolegend), purified anti-IBA1 (#PA5-27436, Invitrogen), Goat anti-Rabbit-Alexa Fluor 647 (#A21245, Invitrogen), purified anti-GFAP (#644702, Biolegend), and Goat anti-Mouse-Alexa Fluor 488 (#11029, Invitrogen). All of the intracellular antibodies were diluted 1:100 in the Permeabilization buffer (lx). Cells were washed with Permeabilization buffer and fixed in Fixation Buffer (#420801, Biolegend). Flow cytometry was performed using the Attune NxT Acoustic Focusing Cytometer (Thermo Fisher Scientific). Analysis of flow cytometry data was performed via FCS Express 7 (DeNovo Software).
Cell viability was assessed with a LUNA-FL Automated fluorescence cell counter. Viable nucleated cells show green fluorescence and dying nucleated cells show red fluorescence. 18 µL of sample was mixed with 2 μL Acridine Orange/Propidium Iodide (AO/PI) Stain.
(§2) All the data were presented as mean±standard error from at least three times, each done in triplicate. The statistical significance between two groups was determined by Student's t test, whereas the comparisons of multiple groups were carried out by one-way ANOVA, followed by Bonferroni's post-test using GraphPad Prism 7 (GraphPad Software, Inc.). A probability value of * p<0.05 was considered to be significant.

The test system of the next data set is Rhesus Monkeys. As to conditions: cited from earlier work.
Data set [2] deals with HMC3 human microglia cells. Put plainly: MSD U-PLEX chemokine secretion induced by TNF-α. The data set is classed as cell-based. The conditions noted are these: 0.3 μg/mL TNF-α, 24 hours; for inhibition at 3 µM: Homo sapiens, HMC3. The method, then:
as §1
HMC3 cells were resuspended, counted using the LUNA-II Automated Cell Counter, seeded in the 6-well plate (400 K cells/2 mL medium/well), and incubated overnight to allow cells to attach. The media and detached cells were removed next day. The cell layer was washed three times in PBS and once in serum- and phenolred-free DMEM (SPFM). […] The conditioned medium was collected and centrifuged at 1,000×RCF (g) for 5 min to pellet detached cells and large debris, which was subsequently passed through a 0.22 μm filter with PVDF membrane to remove smaller debris. Samples of the supernatant medium were put in a CoolRack (#07210041, Fisher Scientific) on dry ice for Snap-freezing and kept at −80° C. until use.
Meso-scale U-PLEX plates that detect a cytokine panel including IL-1β, IL-2, IL-4, IL-6, IL-8, IL-10, IFN-γ, TNF-α, and a chemokine panel including IP-10/CXCL10, MCP-1/CCL2, MIP-1α/CCL3, MIP-1P/CCL4, Eotaxin/CCL11, were used as per manufacture's protocol. 25 μL of the conditioned medium was used in each well of the MSD plates to detect the analytes. The plates were then analyzed on an MSD QuickPlex SQ120 instrument.
as §2

Where [3] appears, read: TgSOD1-Cromolyn vs TgSOD1-Vehicle, p=0.0273.

Like-named read-outs stand apart in the source and are kept apart here. Bounds are passed on as bounds.

Usually inhibition stands for the drop in the measured response relative to a control, in per cent.

Regarding `O=C(O)c1cc(=O)c2c(OCC(O)COc3cccc4oc(C(=O)O)cc(=O)c34)cccc2o1` [cromolyn], the “IL-10 level in plasma” value in the data set with TgSOD1^G93A mice (TgSOD1-Cromolyn vs TgSOD1-Vehicle, p=0.0095) was “significantly decreased”. Moreover, in the data set on TgSOD1^G93A mice (TgSOD1-Cromolyn vs TgSOD1-Vehicle, p=0.0211), the “IL-2 level in plasma” value is “significantly decreased”. In addition, in the data set with TgSOD1^G93A mice (setting [3]), the “IL-6 level in plasma” value is listed as “significantly decreased” and the “TNFα level in spinal cord” value is listed as “significant decrease”. Besides, in the data set on TgSOD1^G93A mice (TgSOD1-Cromolyn vs TgSOD1-Vehicle, p=0.110), the “TNFα level in plasma” value is listed as “trend towards a decrease”. Moreover, the “IL-13 level in plasma” value with TgSOD1^G93A mice (between groups, FIG. 2A) is “no statistically significant difference”. For the same compound, the “IL-5 level in plasma” value in the data set with TgSOD1^G93A mice (between groups, FIG. 2C) is listed as “no statistically significant difference”. Moreover, in data set [1], the “TNF-α induced cell death” value is given as “significantly reduced cell death”. Besides, in the data set with Rhesus Monkeys (single IV dose of 5, 50, 500, 1000 mg/kg, 7-day observation), the Mortality result is “There were no mortalities”. In addition, the “Clinical signs and weight” value in the data set on Rhesus Monkeys (single IV dose, at 500 and 1000 mg/kg) was “Slight ataxia and weight”. For the same compound, in data set [2] (0.3 μM), the “extracellular IP-10 (CXCL10)” value is “statistically significant reduction”, the “extracellular MCP-1 (CCL2)” value is reported as “statistically significant reduction”, the “extracellular MIP-1α (CCL3)” value is recorded as “statistically significant reduction” and the “extracellular MIP-1β (CCL4)” value is “statistically significant reduction”. Further, the inhibition at 3 µM in data set [2] (read-out: inhibition of IP-10 (CXCL10)) was over 40%. Also, the inhibition at 3 µM in data set [2] (read-out: inhibition of MCP-1 (CCL2)) is over 40%. In addition, the inhibition at 3 µM in data set [2] (read-out: inhibition of MIP-1α (CCL3)) came out at 35.6%. Also, the inhibition at 3 µM in data set [2] (read-out: inhibition of MIP-1β (CCL4)) is over 40%.

The record behind these values is patent US12458622B2, “Methods of treatment of coronavirus-induced inflammation conditions” (priority 2020, dated 2025).
